In the supplement of paper PMC10307832:

Columns and labels:
Assay in all cases: relative viability (nuclei count vs DMSO), 5 days (fraction); higher = more cells survive
[1] = compound: C(C(=O)C(=O)O)Br [Bromopyruvate] + CCNC(=O)c1noc(-c2cc(C(C)C)c(O)cc2O)c1-c1ccc(CN2CCOCC2)cc1 [Luminespib] (partner 0.01 µM)
Outline: (§1)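 For relative viability, nuclei counts in treated wells were divided by those in vehicle wells. Lung cancer cell lines had been pin-tool dosed in 1536-well plates the day after seeding and cultured for 5 days, then fixed and stained in one step (final 0.05% Triton X-100, 1% formaldehyde, 1 ug/ml Hoechst) and imaged at 4×. Doses were one drug alone or a fixed anchor-drug dose plus five library-drug doses (not always all listed) in √10 steps, and values are duplicate-plate medians.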

Bicalutamide + OSI-027 = compound: CC(O)(CS(=O)(=O)c1ccc(F)cc1)C(=O)Nc1ccc(C#N)c(C(F)(F)F)c1 [Bicalutamide] + COc1cccc2cc(-c3nc([C@H]4CC[C@H](C(=O)O)CC4)n4ncnc(N)c34)[nH]c12 [OSI-027] (partner 0.5 µM)
Outline: as §1

[2] = compound: C(C(=O)C(=O)O)Br [Bromopyruvate] + CS(=O)(=O)N1CCN(Cc2cc3nc(-c4cccc5[nH]ncc45)nc(N4CCOCC4)c3s2)CC1 [Pictilisib] (partner 1 µM)
Outline: as §1

Bicalutamide + AZD7762 = compound: CC(O)(CS(=O)(=O)c1ccc(F)cc1)C(=O)Nc1ccc(C#N)c(C(F)(F)F)c1 [Bicalutamide] + NC(=O)Nc1cc(-c2cccc(F)c2)sc1C(=O)N[C@H]1CCCNC1 [AZD7762] (partner 0.2 µM)
Outline: as §1

Cell Line	relative viability ([1]; first compound 1 µM)	relative viability ([1]; first compound 3.162 µM)	relative viability ([1]; first compound 10 µM)	relative viability ([1]; first compound 31.62 µM)	relative viability ([1]; first compound 100 µM)	relative viability (Bicalutamide + OSI-027; first compound 0.08 µM)	relative viability (Bicalutamide + OSI-027; first compound 0.253 µM)	relative viability (Bicalutamide + OSI-027; first compound 0.8 µM)	relative viability (Bicalutamide + OSI-027; first compound 2.53 µM)	relative viability ([2]; first compound 1 µM)	relative viability ([2]; first compound 3.162 µM)	relative viability ([2]; first compound 10 µM)	relative viability ([2]; first compound 31.62 µM)	relative viability ([2]; first compound 100 µM)	relative viability (Bicalutamide + AZD7762; first compound 0.08 µM)	relative viability (Bicalutamide + AZD7762; first compound 0.253 µM)	relative viability (Bicalutamide + AZD7762; first compound 0.8 µM)	relative viability (Bicalutamide + AZD7762; first compound 2.53 µM)
LU99A	0.301	0.313	0.273	0.248	0.213	0.282	0.258	0.345	0.233	0.306	0.29	0.319	0.306	0.35	0.431	0.286	0.544	0.252
LXF-289	0.744	0.71	0.779	0.808	0.753	0.816	0.725	0.851	0.672	0.756	0.758	0.802	0.867	0.816	1.17	1.05	1.11	1.1
NCI-H23	0.216	0.182	0.238	0.203	0.201	0.721	0.544	0.605	0.495	0.448	0.535	0.433	0.502	0.409	0.315	0.236	0.27	0.2
NCI-H322M	0.821	0.977	0.891	0.879	0.747	0.6	0.524	0.568	0.474	0.464	0.536	0.502	0.529	0.56	0.581	0.521	0.579	0.572
NCI-H358	0.429	0.397	0.554	0.322	0.31	0.903	0.651	1.01	0.67	0.342	0.397	0.343	0.326	0.328	0.562	0.489	0.64	0.547
NCI-H441	0.445	0.505	0.323	0.524	0.38	0.689	0.585	0.669	0.534	0.428	0.543	0.498	0.466	0.571	1.06	1.08	1.13	1.16
NCI-H460	0.0351	0.0317	0.0297	0.0334	0.0363	0.772	0.601	1.04	0.545	0.483	0.315	0.419	0.358	0.349	0.816	0.659	0.76	0.735
NCI-H596	1.05	1.02	1.14	0.951	0.282	0.854	0.659	0.845	0.763	0.431	0.396	0.419	0.419	0.423	1.13	1.04	1.08	1.11
NCI-H647	0.203	0.306	0.108	0.109	0.4	0.543	0.628	0.79	0.585	0.433	0.421	0.393	0.474	0.455	0.512	0.397	0.549	0.321
NCI-H650	0.887	0.723	0.791	0.704	0.724	0.559	0.507	0.524	0.432	0.804	0.778	0.972	0.92	1.01	0.847	1.09	1.21	0.886
NCI-H727	0.277	0.571	0.218	0.377	0.592	0.573	0.546	0.623	0.442	0.359	0.417	0.604	0.389	0.339	0.794	0.563	0.54	0.576
NCI-H838	0.282	0.359	0.456	0.324	0.282	0.435	0.333	0.449	0.36	0.463	0.446	0.495	0.493	0.448	0.965	0.958	1.02	0.909
NCI-H1355	0.721	0.77	0.649	0.735	0.698	0.433	0.367	0.464	0.4	0.43	0.438	0.466	0.577	0.422	0.828	0.701	0.923	0.72
NCI-H1395	0.661	0.705	0.932	0.754	0.992	0.781	0.538	0.76	0.454	0.556	0.561	0.568	0.629	0.615	0.402	0.399	0.394	0.377
NCI-H1437	1.16	1.19	1.16	1.12	1.1	0.969	0.776	0.973	0.841	0.464	0.502	0.47	0.413	0.496	1.17	1.13	1.15	1.19
NCI-H1651	0.853	0.848	0.929	0.811	1.01	0.654	0.562	0.856	0.694	0.516	0.539	0.69	0.594	0.549	0.513	0.396	0.549	0.436
NCI-H1666	1.08	1.14	0.989	1.04	0.844	0.911	0.866	0.916	0.831	0.43	0.418	0.567	0.558	0.531	0.928	0.759	0.873	0.801
